Reference: article PMC4932540, “Development of a New Radiofluorinated Quinoline Analog for PET Imaging of Phosphodiesterase 5 (PDE5) in Brain” (Pharmaceuticals, 2016)

Target: T1, PDE5A1 (Homo sapiens, UniProt O76074)
T1 construct: gene PDE5A; human recombinant PDE5A1 protein
Experiment: cAMP/cGMP-based PDE enzyme assay, recombinant protein
Assay type: biochemical

Compound: CCc1cc(C#N)cc2c(NCc3ccc(OC)c(Cl)c3)c(COCCF)cnc12 [ICF24027, 4-[(3-Chloro-4-methoxybenzyl)amino]-8-ethyl-3-[(2-fluoroethoxy)methyl]quinoline-6-carbonitrile]
- IC50: 1.86 nM
